Assays:
[1] = system: A549 (lung carcinoma) cell line; assay: MTT cytotoxicity assay, A549; assay type: cell-based; details: Homo sapiens, 48 h, mean of three independent experiments, read-out: IC50 (μM) Mean ± SD, A549
Description: (§1) All cell lines (A549, SGC-7901, Hela, SMMC-7721, and MCF-7) were purchased from the American Type Culture Collection (Manassas, VA, USA), and were cultured in Dulbecco’s modified Eagle’s medium (DMEM, HycloneLaboratories Inc., Logan, Utah, USA) supplemented with 10% fetal bovine serum (FBS, Gibco&Invitrogen, Carlsbad, CA, USA) at 37 °C and 5% CO2.
(§2) The cytotoxic activities of β-carboline-3-carboxylic acid derivatives were investigated by the MTT method, as previously described. Cells (1 × 10^4 cells per well) seeded into 96-well plates (JET, Guangzhou, China) were incubated with DMEM containing various concentrations (2.5, 5, 10, 20, 40, and 80 μM) of β-carbolines (4A, 4B, 4C, 4D, 6a-6f, 6g-6l, 6m-6r, and 6s-6x) for 48 h at 37 °C and 5% CO2. Then, 10 µL of 5 mg/mL MTT reagent dissolved in PBS (Phosphate buffered saline) was added per well, and plates were incubated at 37 °C for 4 h. The medium was carefully removed and 100 µL dimethyl sulfoxide (DMSO) was added to dissolve the formazan crystals. The absorbance was measured at 490 nm with a microplate reader (ThermoFisher Scientific Inc., Waltham, MA, USA). The β-carbolines were dissolved in DMSO as stock solutions (10 mM) at −20 °C, and diluted in the final experimental solution using DMEM before use. A549 (lung carcinoma), SGC-7901 (gastric carcinoma), Hela (cervical carcinoma), SMMC-7721 (liver carcinoma), and MCF-7 (breast carcinoma) cell lines were used for the antitumor activity screening. The IC50 values were the mean values of three independent experiments.

[2] = system: SGC-7901 (gastric carcinoma) cell line; assay: MTT cytotoxicity assay, SGC-7901; assay type: cell-based; details: Homo sapiens, 48 h, mean of three independent experiments, read-out: IC50 (μM) Mean ± SD, SGC-7901
Description: as §1, §2

[3] = system: SMMC-7721 (liver carcinoma) cell line; assay: MTT cytotoxicity assay, SMMC-7721; assay type: cell-based; details: Homo sapiens, 48 h, mean of three independent experiments, read-out: IC50 (μM) Mean ± SD, SMMC-7721
Description: as §1, §2

[4] = system: A549 cells; assay: Cell cycle assay, PI single staining, flow cytometry; assay type: cell-based; details: 48 h
Description: The cell cycle was determined by PI single staining. A549 cells (1 × 10^6 cells per well) seeded into 6-well plates (JET, Guangzhou, China) were incubated with DMEM containing various concentrations (2, 4, and 8 μM) of β-carbolines (4B, 6i, 4D, and 6u) for 48 h at 37 °C and 5% CO2. The cells were harvested, washed with pre-cooled PBS (4 °C), and fixed with pre-cooled 90% ethanol (4 °C). Then, the cells were incubated with 20 μL RNAse (30 μg/mL) and 20 μL PI (50 μg/mL) (Sigma Aldrich, Saint Louis, MO, USA) for 30 min at 37 °C. The samples were analyzed using flow cytometry (BD FACSCalibur, San Jose, CA, USA).
Figure 2 The cell cycle was detected by flow cytometry using PI single staining. A549 cells were treated with 4B, 6i, 4D, and 6u at 2, 4, and 8 μM for 48 h, and then stained with PI for 30 min at 37 °C. The proportions of cells containing different DNA content were analyzed by FCS Express 5.0 (De Novo Software, Thornhill, Canada).

[5] = system: CT DNA; assay: Thermal denaturation study with CT DNA; assay type: binding, calf; details: β-carboline/DNA ratio of 0.5, pH 7.4
Description: The DNA-binding modes of the β-carboline derivatives (4B, 6i, 4D, and 6u) with CT DNA were examined by DNA thermal denaturation experiments, as previously described. The solutions containing complexes of CT DNA and 4B, 6i, 4D, or 6u were heated using a thermostatic water bath, and the absorbance was measured in 1 °C steps from 30 °C to 95 °C at 260 nm (At) by a UV-Vis spectrophotometer (A is the absorbance of the solution at 260 nm at different temperatures, t is the temperature). The experiments were performed in PE buffer (pH = 7.4) with a β-carboline/DNA ratio of 0.5. The ΔTm value of DNA alone is 56.8 °C. ΔTm = ΔTm^(DNA + 4B, 6i, 4D, or 6u) − ΔTm^(DNA alone).
Figure 6 Thermal denaturation study of the complexes of β-carbolines (4B, 6i, 4D, and 6u) and CT-DNA. Melting temperatures were measured in PBS-EDTA buffer (1 mM Na2HPO4, 0.1 mM EDTA, PH 7.4) with a β-carboline (4B, 6i, 4D, and 6u)/DNA ratio of 0.5. ΔTm = (ΔTm^4B,6i,4D, or 6u + DNA − ΔTm^DNA).

Row | SMILES | IC50 [1] | IC50 [2] | IC50 [3] | Percentage of Cell Cycles (%) G1 ([4]; A549, 2 μM) | Percentage of Cell Cycles (%) G2/M ([4]; A549, 2 μM) | Percentage of Cell Cycles (%) S ([4]; A549, 2 μM) | Percentage of Cell Cycles (%) SubG1 ([4]; A549, 2 μM) | Percentage of Cell Cycles (%) G1 ([4]; A549, 4 μM) | Percentage of Cell Cycles (%) G2/M ([4]; A549, 4 μM) | Percentage of Cell Cycles (%) S ([4]; A549, 4 μM) | Percentage of Cell Cycles (%) SubG1 ([4]; A549, 4 μM) | Percentage of Cell Cycles (%) G1 ([4]; A549, 8 μM) | Percentage of Cell Cycles (%) G2/M ([4]; A549, 8 μM) | Percentage of Cell Cycles (%) S ([4]; A549, 8 μM) | Percentage of Cell Cycles (%) SubG1 ([4]; A549, 8 μM) | ΔTm [5]
1 | COC(=O)c1cc2c3ccccc3n(Cc3ccccc3C)c2cn1 [Compound 4B] | 39.2 ± 1.18 µM | 42.3 ± 2.13 µM | > 80 µM | 59.38% | 15.46% | 25.16% | 6.56% | 43.06% | 46.96% | 9.98% | 10.49% | 52.09% | 2.1% | 45.81% | 4.15% | 7.5 °C
2 | COC(=O)c1cc2c3ccccc3n(Cc3ccccc3F)c2cn1 [Compound 4D] | 13.94 ± 0.07 µM | 17.8 ± 0.66 µM | 35.6 ± 1.33 µM | 56.89% | 18.94% | 24.17% | 6.41% | 47.21% | 35.46% | 17.33% | 39.03% | 88.01% | 0.3% | 11.69% | 46.29% | 3.5 °C
3 | Cc1ccccc1Cn1c2ccccc2c2cc(C(=O)OCCCCCOC(=O)c3cc4c5ccccc5n(Cc5ccccc5C)c4cn3)ncc21 [Compound 6i] | 6.93 ± 0.33 µM | 7.18 ± 0.01 µM | 14.2 ± 0.28 µM | 57.38% | 10.54% | 32.08% | 6.86% | 45.19% | 42.40% | 12.41% | 26.33% | 46.64% | 0.06% | 53.30% | 21.32% | 8.5 °C
4 | O=C(OCCCCCOC(=O)c1cc2c3ccccc3n(Cc3ccccc3F)c2cn1)c1cc2c3ccccc3n(Cc3ccccc3F)c2cn1 [Compound 6u] | 5.61 ± 0.04 µM | 5.86 ± 0.08 µM | 16.68 ± 0.11 µM | 56.24% | 19.97% | 23.79% | 6.84% | 47.06% | 40.34% | 12.60% | 46.25% | 81.62% | 18.30% | 0.08% | 44.92% | 9.0 °C
